Results as given in ChEMBL document CHEMBL3727362, “Tetrahydronaphthyridine and tetrahydropyrido[4,3-D]pyrimidine compounds and compositions thereof useful for the treatment of inflammatory and respiratory diseases” (2014).

biological target: T1, P2X2/P2X3 heterotrimeric receptor (Homo sapiens) (UniProt Q9UBL9+P56373); experiment: Antagonist activity against human P2X2/3 receptor expressed in HEK293/1321N1 cells assessed as inhibition of alpha,beta-meATP/ATP-induced calcium influx at 3 uM by Fluo-4 dye based FLIPR assay; assay type: functional, cell-based

Question: For `COc1ccc(CNc2ncnc3c2CN(c2ccc(C)cn2)CC3)cc1`, which inhibition is on record?
Answer: > 75%

Question: `Cc1ccc(N2CCc3ncnc(N(C)Cc4ccccc4)c3C2)nc1` was tested. Which inhibition did it give?
Answer: 0%

Question: With `Cc1ccc(N2CCc3ncnc(NCc4ccc(Cl)cc4F)c3C2)nc1` as the compound, how does the inhibition read?
Answer: 50%

Question: With `Cc1ccc(N2CCc3ncnc(NCCc4ccccc4)c3C2)nc1` as the compound, how does the inhibition read?
Answer: > 75%

Question: How did the inhibition turn out when `CCc1ccc(CN(C)c2ncnc3c2CN(c2ccc(C)cn2)CC3)cc1` was run?
Answer: 0%

Question: With `Cc1ccc(N2CCc3ncnc(NCc4ccccc4C(F)(F)F)c3C2)nc1` as the compound, how does the inhibition read?
Answer: 50%

Question: With `Cc1ccc(CN(C)c2ncnc3c2CN(c2ccc(C)cn2)CC3)cc1` as the compound, how does the inhibition read?
Answer: 25%

Question: Which inhibition does the source give for `Cc1ccc(CNc2ncnc3c2CN(c2ccc(C)cn2)CC3)cc1` here?
Answer: > 75%

Question: For `COc1ccc(CN(C)c2ncnc3c2CN(c2ccc(C)cn2)CC3)cc1`, which inhibition is on record?
Answer: 0%

Question: For `Cc1ccc(CCNc2ncnc3c2CN(c2ccc(C)cn2)CC3)cc1`, which inhibition is on record?
Answer: > 75%

Question: For `Cc1ccc(N2CCc3ncnc(NCCc4ccccc4Cl)c3C2)nc1`, which inhibition is on record?
Answer: > 75%

Question: Which inhibition does the source give for `Cc1ccc(N2CCc3ncnc(NCc4ccc(F)c(C)c4)c3C2)nc1` here?
Answer: > 75%

Question: `Cc1ccc(N2CCc3ncnc(NCc4cccc(Cl)c4)c3C2)nc1` was tested. Which inhibition did it give?
Answer: > 75%

Question: With `Cc1ccc(N2CCc3ncnc(N(C)Cc4ccc(C(F)(F)F)cc4)c3C2)nc1` as the compound, how does the inhibition read?
Answer: 0%

Question: `Cc1ccc(N2CCc3ncnc(NCc4cccc(C(F)(F)F)c4)c3C2)nc1` was tested. Which inhibition did it give?
Answer: 50%

Question: For `Cc1ccc(N2CCc3ncnc(NCCc4ccc(Cl)c(Cl)c4)c3C2)nc1`, which inhibition is on record?
Answer: 50%

Question: How did the inhibition turn out when `Cc1ccc(N2CCc3ncnc(NCc4cc(F)ccc4F)c3C2)nc1` was run?
Answer: 50%

Question: Which inhibition does the source give for `Cc1ccc(N2CCc3ncnc(NCCc4ccc(Cl)cc4)c3C2)nc1` here?
Answer: > 75%

Question: For `Cc1ccc(N2CCc3ncnc(NCc4ccc(C)cc4C)c3C2)nc1`, which inhibition is on record?
Answer: 25%

Question: How did the inhibition turn out when `COc1ccccc1CN(C)c1ncnc2c1CN(c1ccc(C)cn1)CC2` was run?
Answer: 0%

Question: With `Cc1ccc(N2CCc3ncnc(N(C)Cc4ccc(F)cc4)c3C2)nc1` as the compound, how does the inhibition read?
Answer: 0%

Question: Which inhibition does the source give for `Cc1ccc(N2CCc3ncnc(NCc4ccccc4OC(F)F)c3C2)nc1` here?
Answer: > 75%

Question: For `Cc1ccc(N2CCc3ncnc(NCc4cccc(C)c4C)c3C2)nc1`, which inhibition is on record?
Answer: 0%

Question: For `Cc1ccc(N2CCc3ncnc(NCc4cc(C(F)(F)F)cc(C(F)(F)F)c4)c3C2)nc1`, which inhibition is on record?
Answer: 0%

Question: With `COc1cccc(CCNc2ncnc3c2CN(c2ccc(C)cn2)CC3)c1` as the compound, how does the inhibition read?
Answer: > 75%

Question: With `Cc1ccc(N2CCc3ncnc(NCc4ccc(F)c(C(F)(F)F)c4)c3C2)nc1` as the compound, how does the inhibition read?
Answer: 0%

Question: For `Cc1ccc(N2CCc3ncnc(NCc4ccccc4OC(F)(F)F)c3C2)nc1`, which inhibition is on record?
Answer: > 75%

Question: For `Cc1ccc(N2CCc3ncnc(NCc4ccc(C(F)(F)F)cc4F)c3C2)nc1`, which inhibition is on record?
Answer: > 75%

Question: `O=S(=O)(c1ccc(Nc2ncnc3c2CN(c2ncccc2Cl)CC3)cc1)C(F)(F)F` was tested. Which inhibition did it give?
Answer: 0%

Question: With `COc1ccc(CN(C)c2ncnc3c2CN(c2ccc(C)cn2)CC3)cc1OC` as the compound, how does the inhibition read?
Answer: 25%

Question: For `COc1cccc(CN(C)c2ncnc3c2CN(c2ccc(C)cn2)CC3)c1`, which inhibition is on record?
Answer: 0%

Question: For `COc1ccc(CCNc2ncnc3c2CN(c2ccc(C)cn2)CC3)cc1`, which inhibition is on record?
Answer: > 75%

Question: With `Cc1ccc(N2CCc3ncnc(NCc4ccc(Cl)c(Cl)c4)c3C2)nc1` as the compound, how does the inhibition read?
Answer: 0%

Question: For `Cc1ccc(N2CCc3ncnc(NCc4cc(Cl)ccc4F)c3C2)nc1`, which inhibition is on record?
Answer: 50%

Question: How did the inhibition turn out when `COc1cc(CCNc2ncnc3c2CN(c2ccc(C)cn2)CC3)cc(OC)c1` was run?
Answer: 50%

Question: For `Cc1ccc(N2CCc3ncnc(NCc4ccc(C(C)C)cc4)c3C2)nc1`, which inhibition is on record?
Answer: 0%

Question: Which inhibition does the source give for `COc1cccc(CNc2ncnc3c2CN(c2ccc(C)cn2)CC3)c1` here?
Answer: > 75%

Question: How did the inhibition turn out when `Cc1ccc(N2CCc3ncnc(NCc4cccc(F)c4)c3C2)nc1` was run?
Answer: > 75%

Question: Which inhibition does the source give for `Cc1ccc(N2CCc3ncnc(N(C)Cc4cccc(Cl)c4)c3C2)nc1` here?
Answer: 0%

Question: With `Cc1ccc(N2CCc3ncnc(NC(C)c4ccc(F)cc4)c3C2)nc1` (centres undefined) as the compound, how does the inhibition read?
Answer: > 75%

Question: `COc1ccc(CCNc2ncnc3c2CN(c2ccc(C)cn2)CC3)cc1OC` was tested. Which inhibition did it give?
Answer: 50%

Question: Which inhibition does the source give for `COc1cc(CNc2ncnc3c2CN(c2ccc(C)cn2)CC3)cc(OC)c1` here?
Answer: 0%

Question: How did the inhibition turn out when `Cc1ccc(N2CCc3ncnc(NCc4cc(C(F)(F)F)ccc4F)c3C2)nc1` was run?
Answer: 0%

Question: For `Cc1ccc(N2CCc3ncnc(NCCc4cccc(C(F)(F)F)c4)c3C2)nc1`, which inhibition is on record?
Answer: > 75%

Question: For `Cc1ccc(N2CCc3ncnc(NCc4cccc(F)c4F)c3C2)nc1`, which inhibition is on record?
Answer: > 75%

Question: Which inhibition does the source give for `Cc1ccc(N2CCc3ncnc(NCc4ccc5c(c4)OCO5)c3C2)nc1` here?
Answer: > 75%

Question: How did the inhibition turn out when `Cc1ccc(N2CCc3ncnc(NCc4cc(C(F)(F)F)ccc4Cl)c3C2)nc1` was run?
Answer: 0%

Question: For `Cc1ccc(N2CCc3ncnc(NCc4ccc(F)c(F)c4)c3C2)nc1`, which inhibition is on record?
Answer: > 75%

Question: For `Cc1ccc(N2CCc3ncnc(NCc4ccccc4Cl)c3C2)nc1`, which inhibition is on record?
Answer: > 75%

Question: How did the inhibition turn out when `Cc1ccc(N2CCc3ncnc(NCc4ccc(OC(F)(F)F)cc4)c3C2)nc1` was run?
Answer: 50%

Question: With `CN1CC(C)(C)c2ccc(Nc3ncnc4c3CN(c3ncccc3Cl)CC4)cc21` as the compound, how does the inhibition read?
Answer: 0%

Question: With `Cc1ccc(N2CCc3ncnc(NCc4ccc(Cl)cc4)c3C2)nc1` as the compound, how does the inhibition read?
Answer: > 75%

Question: How did the inhibition turn out when `Cc1ccc(N2CCc3ncnc(NCc4cc(F)cc(C(F)(F)F)c4)c3C2)nc1` was run?
Answer: 0%

Question: How did the inhibition turn out when `Cc1ccc(N2CCc3ncnc(N(C)Cc4ccc(Cl)cc4)c3C2)nc1` was run?
Answer: 0%

Question: For `Cc1ccc(N2CCc3ncnc(NCc4ccc(C(C)(C)C)cc4)c3C2)nc1`, which inhibition is on record?
Answer: 0%

Question: How did the inhibition turn out when `Cc1ccc(N2CCc3ncnc(NCc4ccc(Cl)cc4Cl)c3C2)nc1` was run?
Answer: 0%

Question: With `Cc1ccc(N2CCc3ncnc(NCc4ccc(C(F)(F)F)cc4)c3C2)nc1` as the compound, how does the inhibition read?
Answer: > 75%

Question: Which inhibition does the source give for `Clc1cccnc1N1CCc2ncnc(Nc3ccccc3)c2C1` here?
Answer: 0%

Question: `Cc1ccc(N2CCc3ncnc(NCc4cc(Cl)cc(Cl)c4)c3C2)nc1` was tested. Which inhibition did it give?
Answer: 0%

biological target: T1, P2X2/P2X3 heterotrimeric receptor (Homo sapiens); experiment: Antagonist activity against human P2X2/3 receptor expressed in HEK293/1321N1 cells assessed as inhibition of alpha,beta-meATP/ATP-induced calcium influx at 10 uM by Fluo-4 dye based FLIPR assay; assay type: functional, cell-based

Question: `Cc1ccc(N2CCc3ncnc(NCCc4ccccc4Cl)c3C2)nc1` was tested. Which inhibition did it give?
Answer: > 75%

Question: `CC1(C)CNc2cc(Nc3ncnc4c3CN(c3ncccc3Cl)CC4)ccc21` was tested. Which inhibition did it give?
Answer: 0%

Question: For `Cc1ccc(N2CCc3ncnc(N(C)Cc4ccc(F)cc4)c3C2)nc1`, which inhibition is on record?
Answer: 50%

Question: Which inhibition does the source give for `COc1ccc(CN(C)c2ncnc3c2CN(c2ccc(C)cn2)CC3)cc1OC` here?
Answer: > 75%

Question: For `Cc1ccccc1N1CCc2ncnc(Nc3ccc(C(F)(F)F)cc3)c2C1`, which inhibition is on record?
Answer: 0%

Question: For `COc1cccc(CNc2ncnc3c2CN(c2ccc(C)cn2)CC3)c1`, which inhibition is on record?
Answer: > 75%

Question: With `Cc1ccc(N2CCc3ncnc(NCC4CCCCC4)c3C2)nc1` as the compound, how does the inhibition read?
Answer: > 75%

Question: How did the inhibition turn out when `Cc1ccc(N2CCc3ncnc(NCCc4cccc(C(F)(F)F)c4)c3C2)nc1` was run?
Answer: > 75%

Question: With `FC(F)(F)c1ccc(Nc2ncnc3c2CN(c2ncccc2Cl)CC3)cn1` as the compound, how does the inhibition read?
Answer: 0%

Question: For `CC1(C)C(=O)Nc2cc(Nc3ncnc4c3CN(c3ncccc3Cl)CC4)ccc21`, which inhibition is on record?
Answer: 0%

Question: For `Cc1ccc(N2CCc3ncnc(NCC4(O)CCCC(C)(C)C4)c3C2)nc1` (centres undefined), which inhibition is on record?
Answer: 0%

Question: With `Cc1ccc(N2CCc3ncnc(NCc4cc(C(F)(F)F)ccc4Cl)c3C2)nc1` as the compound, how does the inhibition read?
Answer: 0%

Question: How did the inhibition turn out when `Cc1ccc(N2CCc3ncnc(NCc4ccccc4C)c3C2)nc1` was run?
Answer: > 75%

Question: With `Cc1ccc(N2CCc3ncnc(Nc4ccc(C(F)(F)F)cc4)c3C2)cc1` as the compound, how does the inhibition read?
Answer: 0%

Question: `COc1ccccc1CNc1ncnc2c1CN(c1ccc(C)cn1)CC2` was tested. Which inhibition did it give?
Answer: > 75%
